# Results as given in ChEMBL document CHEMBL1149989, “Synthesis and biological evaluation of flavonoids and related compounds as gastroprotective agents” (1996).
# Tests used:
# Assay type in all cases: functional
# Rattus norvegicus [1] = experiment: Gastroprotective activity in rat ethanol-induced damage model following intraperitoneal administration.; design: concentration or dose not given beside the values
# Rattus norvegicus [2] = experiment: Effective dose for gastroprotective activity in rat ethanol-induced damage model following intraperitoneal administration.; details: ip
# Rattus norvegicus [3] = experiment: Effective dose gastroprotective activity in rat ethanol-induced damage model following intraperitoneal administration.; details: ip
# Rattus norvegicus [4] = experiment: Compound was tested for gastroprotective activity in rat ethanol-induced damage model following oral administration (0.1 mg/kg).
SMILES,Protection (Rattus norvegicus [1]) [%],other results
O=c1cc(-c2cccnc2)oc2ccccc12,97,
Nc1ccccc1C(=O)/C=C/c1ccccc1,36,
Cc1cc(=O)c2ccccc2o1,76,ED50 (Rattus norvegicus [2]): 5.4 mg/kg
CCc1cc(=O)c2ccccc2o1,74,ED50 (Rattus norvegicus [3]): 4.3 mg/kg
O=c1cc(-c2cccs2)oc2ccccc12,82,
S=c1cc(-c2ccccc2)oc2ccccc12,58,
COc1ccccc1C(=O)CC(=O)c1ccccc1,19,
COc1cccc2oc(C)cc(=O)c12,81,
Oc1cc(-c2ccccc2)nc2ccccc12,17,
COc1cccc2c1C(=O)CC(c1ccccc1)O2 (configuration not stated),32,
Cn1c(-c2cc(=O)c3ccccc3o2)cc2ccccc21,74,
O=c1cc(-c2ccccc2)sc2ccccc12,67,
O=C(/C=C/c1ccccc1)c1ccccc1 [CHALCONE],32,
CN/C(=N\CCSCc1nc[nH]c1C)NC#N [CIMETIDINE],,Protection (Rattus norvegicus [4]): 14%
CCCCC[C@H](O)/C=C/[C@H]1[C@H](O)CC(=O)[C@@H]1C/C=C\CCCC(=O)O [DINOPROSTONE],,Protection (Rattus norvegicus [4]): 64%
O=C1CC(c2ccccc2)Oc2ccccc21 (configuration not stated) [FLAVANONE],24,
O=c1cc(-c2ccccc2)oc2ccccc12 [FLAVONE],88,ED50 (Rattus norvegicus [2]): 6.9 mg/kg
CC(C)Oc1ccc2c(=O)c(-c3ccccc3)coc2c1 [IPRIFLAVONE],<10,
O=c1c(-c2ccccc2)coc2ccccc12 [ISOFLAVONE],<10,
